# Earlier results as cited in US11377445B2, “Derivatives of paliperidone and process for the preparation thereof” (Zenvision Pharma LLP, priority 2018, dated 2022).
solubility in 0.1N HCl (0.1N HCl),solubility in 0.1N NaOH (0.1N NaOH),"solubility in N, N-dimethylformamide (N, N-dimethylformamide)",solubility in hexane (hexane),solubility in methylene chloride (methylene chloride),solubility in water (water),solubility in ethanol (ethanol),solubility in ethyl acetate (ethyl acetate),solubility in methanol (methanol),solubility in polyethylene glycol 400 (polyethylene glycol 400),solubility in propylene glycol (propylene glycol),Structure (SMILES)
sparingly soluble,practically insoluble,slightly soluble,practically insoluble,sparingly soluble,practically insoluble,,,,,,"Cc1nc2n(c(=O)c1CCN1CCC(c3noc4cc(F)ccc34)CC1)CCCC2O (racemic) [Paliperidone, (±)-3-[2-[4-(6-fluoro-1,2-benzisoxazol-3-yl)-1-piperidinyl]ethyl]-6,7,8,9-tetrahydro-9-hydroxy-2-methyl-4Hpyrido[1,2-a]pyrimidin-4-one]"
,,,,,,very slightly soluble,slightly soluble,very slightly soluble,practically insoluble,practically insoluble,CCCCCCCCCCCCCCCC(=O)OC1CCCn2c1nc(C)c(CCN1CCC(c3noc4cc(F)ccc34)CC1)c2=O (centres unmarked) [Paliperidone palmitate]
